According to patent US7407973B2, “Use of pirfenidone in therapeutic regimens” (Intermune, Inc., priority 2003, dated 2008):

Columns and labels:
Experiment in all cases: Enzymatic activity of human kinase in presence of pirfenidone
Format in all cases: biochemical
Details in all cases: percent of control activity in absence of pirfenidone, concentration not given
Lyn = Lyn (Homo sapiens, UniProt P07948)
Protocol: (§1) Enzymatic activity of various human kinases was assayed in the presence and the absence of pirfenidone. Percent enzyme activity of various human enzymes in the presence of substrate and pirfenidone are shown in FIGS. 1-5, and in Table 2, below, where “percent enzyme activity” is the percent of the control activity (e.g., in the absence of pirfenidone): […]

JNK2 = JNK2 (Homo sapiens, UniProt P45984)
Protocol: as §1

Rsk2 = Rsk2 (Homo sapiens, UniProt P51812)
Protocol: as §1

Fyn = Fyn (Homo sapiens, UniProt P06241)
Protocol: as §1

CDK2/cyclinE = CDK2/cyclinE (Homo sapiens, UniProt P24941)
Protocol: as §1

IGF-1R = IGF-1R (Homo sapiens, UniProt P08069)
Protocol: as §1

JNK3 = JNK3 (Homo sapiens, UniProt P53779)
Protocol: as §1

PKBγ = PKBγ (Homo sapiens, UniProt Q9Y243)
Protocol: as §1

Aurora-A = Aurora-A (Homo sapiens, UniProt O14965)
Protocol: as §1

MAPK2 = MAPK2 (Homo sapiens, UniProt P28482)
Protocol: as §1

PKCτ = tested on: PKCτ
Protocol: as §1

CDK2/cyclinA = CDK2/cyclinA (Homo sapiens, UniProt P24941)
Protocol: as §1

PDK1 = PDK1 (Homo sapiens, UniProt O15530)
Protocol: as §1

PKCa = tested on: PKCa
Protocol: as §1

CDK1/cyclinB = CDK1/cyclinB (Homo sapiens, UniProt P06493)
Protocol: as §1

Fes = Fes (Homo sapiens, UniProt P07332)
Protocol: as §1

IR = IR (Homo sapiens, UniProt P06213)
Protocol: as §1

PKCβII = PKCβII (Homo sapiens, UniProt P05771)
Protocol: as §1

PKCα = PKCα (Homo sapiens, UniProt P17252)
Protocol: as §1

PRK2 = PRK2 (Homo sapiens, UniProt Q16513)
Protocol: as §1

IKKβ = IKKβ (Homo sapiens, UniProt O14920)
Protocol: as §1

Syk = Syk (Homo sapiens, UniProt P43405)
Protocol: as §1

PRAK = PRAK (Homo sapiens, UniProt Q8IW41)
Protocol: as §1

CSK = CSK (Homo sapiens, UniProt P41240)
Protocol: as §1

SAPK2α = SAPK2α (Homo sapiens, UniProt Q16539)
Protocol: as §1

Rsk3 = Rsk3 (Homo sapiens, UniProt Q15349)
Protocol: as §1

CK2 = CK2 (Homo sapiens, UniProt P68400)
Protocol: as §1

CaMKIV = CaMKIV (Homo sapiens, UniProt Q16566)
Protocol: as §1

PKCδ = PKCδ (Homo sapiens, UniProt Q05655)
Protocol: as §1

SAPK3 = SAPK3 (Homo sapiens, UniProt P53778)
Protocol: as §1

JNK1 = JNK1 (Homo sapiens, UniProt P45983)
Protocol: as §1

Chain of JNK2 (P45984 whole entry): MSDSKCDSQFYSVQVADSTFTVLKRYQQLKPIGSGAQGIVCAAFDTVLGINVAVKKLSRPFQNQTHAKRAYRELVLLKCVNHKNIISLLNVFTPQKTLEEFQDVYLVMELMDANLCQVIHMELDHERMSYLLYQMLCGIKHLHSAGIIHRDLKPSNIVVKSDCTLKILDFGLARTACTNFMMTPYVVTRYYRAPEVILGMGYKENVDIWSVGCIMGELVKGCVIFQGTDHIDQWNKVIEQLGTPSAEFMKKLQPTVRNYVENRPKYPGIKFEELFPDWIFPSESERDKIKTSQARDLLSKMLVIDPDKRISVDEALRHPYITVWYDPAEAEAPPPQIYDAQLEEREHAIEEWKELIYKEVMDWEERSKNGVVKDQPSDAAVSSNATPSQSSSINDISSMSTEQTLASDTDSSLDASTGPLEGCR
Chain of Lyn (P07948 whole entry): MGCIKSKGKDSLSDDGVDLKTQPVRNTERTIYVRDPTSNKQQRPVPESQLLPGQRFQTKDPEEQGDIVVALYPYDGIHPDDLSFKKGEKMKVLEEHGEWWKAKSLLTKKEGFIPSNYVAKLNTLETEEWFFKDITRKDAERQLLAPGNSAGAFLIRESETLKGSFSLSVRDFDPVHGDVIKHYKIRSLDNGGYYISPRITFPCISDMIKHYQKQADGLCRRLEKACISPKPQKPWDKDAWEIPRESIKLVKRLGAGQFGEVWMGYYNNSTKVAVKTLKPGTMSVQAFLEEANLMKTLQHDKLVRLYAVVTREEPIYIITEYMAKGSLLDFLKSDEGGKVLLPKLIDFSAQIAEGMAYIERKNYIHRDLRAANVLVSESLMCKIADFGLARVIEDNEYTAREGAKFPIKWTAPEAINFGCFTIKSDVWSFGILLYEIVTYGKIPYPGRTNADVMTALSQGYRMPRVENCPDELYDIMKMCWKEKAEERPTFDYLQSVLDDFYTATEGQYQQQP
Chain of IKKβ (O14920 whole entry): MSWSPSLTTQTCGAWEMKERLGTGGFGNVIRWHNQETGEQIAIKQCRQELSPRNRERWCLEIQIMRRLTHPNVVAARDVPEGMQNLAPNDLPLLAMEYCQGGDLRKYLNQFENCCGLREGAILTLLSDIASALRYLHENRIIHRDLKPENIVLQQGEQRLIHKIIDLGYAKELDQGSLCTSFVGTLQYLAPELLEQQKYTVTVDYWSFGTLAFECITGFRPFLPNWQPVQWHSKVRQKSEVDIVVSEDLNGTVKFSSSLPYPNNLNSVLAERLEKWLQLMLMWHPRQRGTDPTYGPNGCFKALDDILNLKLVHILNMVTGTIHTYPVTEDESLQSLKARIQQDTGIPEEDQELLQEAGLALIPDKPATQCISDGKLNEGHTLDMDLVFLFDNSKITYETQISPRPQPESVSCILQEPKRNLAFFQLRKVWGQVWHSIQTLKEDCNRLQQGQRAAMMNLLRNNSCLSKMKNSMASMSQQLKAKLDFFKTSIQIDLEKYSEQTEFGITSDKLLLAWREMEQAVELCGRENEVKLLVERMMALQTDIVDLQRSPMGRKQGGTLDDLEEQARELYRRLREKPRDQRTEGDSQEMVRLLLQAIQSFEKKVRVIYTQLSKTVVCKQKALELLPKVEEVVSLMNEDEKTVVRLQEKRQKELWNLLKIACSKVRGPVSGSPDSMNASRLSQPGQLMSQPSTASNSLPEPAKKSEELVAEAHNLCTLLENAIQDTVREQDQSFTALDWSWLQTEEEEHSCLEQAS
Chain of CDK1/cyclinB (P06493 whole entry): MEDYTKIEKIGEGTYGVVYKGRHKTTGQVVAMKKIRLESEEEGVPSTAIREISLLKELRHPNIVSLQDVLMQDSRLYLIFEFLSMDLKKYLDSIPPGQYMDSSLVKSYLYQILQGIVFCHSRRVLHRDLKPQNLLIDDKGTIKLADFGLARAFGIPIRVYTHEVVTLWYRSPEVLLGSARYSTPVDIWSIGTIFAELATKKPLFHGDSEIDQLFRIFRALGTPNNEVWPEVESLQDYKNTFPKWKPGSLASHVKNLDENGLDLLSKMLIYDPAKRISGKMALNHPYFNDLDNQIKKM
Chain of CDK1/cyclinB (P14635 whole entry partner): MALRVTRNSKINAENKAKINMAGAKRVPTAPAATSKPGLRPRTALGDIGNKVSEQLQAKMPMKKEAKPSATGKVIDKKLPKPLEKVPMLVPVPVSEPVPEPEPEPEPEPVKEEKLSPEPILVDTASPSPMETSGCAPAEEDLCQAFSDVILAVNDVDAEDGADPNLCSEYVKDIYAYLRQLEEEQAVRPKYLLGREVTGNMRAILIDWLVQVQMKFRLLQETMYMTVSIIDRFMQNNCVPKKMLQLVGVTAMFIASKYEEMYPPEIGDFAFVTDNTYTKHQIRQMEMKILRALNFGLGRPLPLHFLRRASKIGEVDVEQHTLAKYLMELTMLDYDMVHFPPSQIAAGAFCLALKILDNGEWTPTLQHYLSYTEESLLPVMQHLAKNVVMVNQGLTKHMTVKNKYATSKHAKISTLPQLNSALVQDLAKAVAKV
Chain of CaMKIV (Q16566 whole entry): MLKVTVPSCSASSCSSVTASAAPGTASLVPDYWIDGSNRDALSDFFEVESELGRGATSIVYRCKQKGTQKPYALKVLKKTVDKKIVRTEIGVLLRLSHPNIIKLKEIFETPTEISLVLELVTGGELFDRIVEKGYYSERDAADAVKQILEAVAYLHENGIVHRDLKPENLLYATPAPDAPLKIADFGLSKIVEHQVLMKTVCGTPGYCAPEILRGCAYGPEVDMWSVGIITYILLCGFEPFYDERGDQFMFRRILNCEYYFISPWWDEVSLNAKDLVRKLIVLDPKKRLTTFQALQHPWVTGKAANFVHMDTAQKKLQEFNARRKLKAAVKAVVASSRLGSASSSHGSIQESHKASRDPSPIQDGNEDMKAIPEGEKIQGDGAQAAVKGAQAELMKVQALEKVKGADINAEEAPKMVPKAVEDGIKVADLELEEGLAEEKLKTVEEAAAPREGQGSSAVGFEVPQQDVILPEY
Chain of MAPK2 (P28482 whole entry): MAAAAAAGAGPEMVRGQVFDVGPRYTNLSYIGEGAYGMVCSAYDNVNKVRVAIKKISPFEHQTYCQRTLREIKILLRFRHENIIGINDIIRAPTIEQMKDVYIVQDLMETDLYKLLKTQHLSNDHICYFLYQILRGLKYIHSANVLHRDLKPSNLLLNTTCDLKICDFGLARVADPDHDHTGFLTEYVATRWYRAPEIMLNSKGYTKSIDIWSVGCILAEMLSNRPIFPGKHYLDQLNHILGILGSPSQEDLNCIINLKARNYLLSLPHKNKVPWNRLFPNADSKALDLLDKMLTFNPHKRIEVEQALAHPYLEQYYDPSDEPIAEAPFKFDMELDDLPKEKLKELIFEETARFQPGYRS
Chain of JNK3 (P53779 whole entry): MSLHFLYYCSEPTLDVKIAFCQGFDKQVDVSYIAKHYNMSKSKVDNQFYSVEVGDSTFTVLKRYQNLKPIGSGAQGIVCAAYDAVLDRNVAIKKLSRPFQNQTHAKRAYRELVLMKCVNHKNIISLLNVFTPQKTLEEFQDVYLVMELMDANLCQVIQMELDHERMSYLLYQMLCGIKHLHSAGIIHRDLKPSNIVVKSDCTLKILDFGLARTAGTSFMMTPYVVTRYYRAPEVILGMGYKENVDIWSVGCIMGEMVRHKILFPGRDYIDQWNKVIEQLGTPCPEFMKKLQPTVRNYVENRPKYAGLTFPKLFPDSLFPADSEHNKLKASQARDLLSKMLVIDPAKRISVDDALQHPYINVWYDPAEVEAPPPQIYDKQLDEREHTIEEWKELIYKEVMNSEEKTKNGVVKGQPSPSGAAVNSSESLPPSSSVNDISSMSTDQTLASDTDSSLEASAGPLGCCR
Chain of Aurora-A (O14965 whole entry): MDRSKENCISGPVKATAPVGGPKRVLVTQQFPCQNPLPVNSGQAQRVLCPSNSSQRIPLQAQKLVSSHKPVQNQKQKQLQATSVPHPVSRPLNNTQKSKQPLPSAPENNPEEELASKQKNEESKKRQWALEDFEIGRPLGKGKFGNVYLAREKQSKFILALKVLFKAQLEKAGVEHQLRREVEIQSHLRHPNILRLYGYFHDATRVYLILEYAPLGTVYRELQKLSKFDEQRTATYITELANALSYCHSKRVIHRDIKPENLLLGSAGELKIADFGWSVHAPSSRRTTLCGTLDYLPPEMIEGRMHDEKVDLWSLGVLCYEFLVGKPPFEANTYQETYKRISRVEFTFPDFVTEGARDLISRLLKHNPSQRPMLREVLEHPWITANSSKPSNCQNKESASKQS

% Activity (Lyn): 92% | % Activity (JNK2): 97% | % Activity (Rsk2): 99% | % Activity (Fyn): 97% | % Activity (CDK2/cyclinE): 89% | % Activity (IGF-1R): 92% | % Activity (JNK3): 106% | % Activity (PKBγ): 111% | % Activity (Aurora-A): 120% | % Activity (MAPK2): 100% | % Activity (PKCτ): 96% | % Activity (CDK2/cyclinA): 92% | % Activity (PDK1): 93% | % Activity (PKCa): 96% | % Activity (CDK1/cyclinB): 102% | % Activity (Fes): 88% | % Activity (IR): 97% | % Activity (PKCβII): 100% | % Activity (PKCα): 94% | % Activity (PRK2): 90% | % Activity (IKKβ): 90% | % Activity (Syk): 78% | % Activity (PRAK): 90% | % Activity (CSK): 64% | % Activity (SAPK2α): 70% | % Activity (Rsk3): 115% | % Activity (CK2): 94% | % Activity (CaMKIV): 107% | % Activity (PKCδ): 102% | % Activity (SAPK3): 46% | % Activity (JNK1): 105%
Compound: Cc1ccc(=O)n(-c2ccccc2)c1 [pirfenidone, 5-methyl-1-phenyl-2-(1H)-pyridone]
